Results reported in patent US12303614B2, “Compositions and methods for improving mechanical properties of a tissue or for regenerating an injured or diseased tissue” (University of Rochester, priority 2019, dated 2025).
“Also recorded” adds a separate entry of the source.

What was measured:
[1] = system: HH43 chick embryo calcaneal tendons; experiment: Fibrillar collagen content and organization by F-SHG two photon microscopy; format: in vivo; conditions: HH43 chick embryos, 48 h
Description: (§1) Fertilized white leghorn eggs (University of Connecticut poultry farm) were incubated at 37° C. under high humidity. For developmental characterizations, eggs were not injected. For other experiments, a single dose of sterile saline (control), 0.2% DMB (rigid paralysis), 0.2% pancuronium bromide (PB) (flaccid paralysis), 0.2% 4-AP (hypermotility), or 0.2% 4-AP and 5 mg BAPN per gram of embryo dry mass (to simultaneously induce hypermotility and inhibition of LOX activity) was injected at the air sac end of an HH43 egg and incubated for another 48 h, as previously described (10). DMB dosage was based on previous studies that paralyzed the embryo without affecting gross development (3). […] At specific timepoints, chick embryos were sacrificed by decapitation and staged based on anatomical features (15). The calcaneal tendon was homogenized in TRIzol LS reagent, snap frozen for protein and enzyme assays, or embedded for cryosectioning.
(§2) Calcaneal tendons of staged embryos were cryoembedded as previously described (10) and cryosectioned at 50 μm thickness.
Tendon cryosections were immersed in Ca^2+/Mg^2+-free phosphate buffered saline (PBS) to remove O.C.T. A 20× water objective imaged a 220×220 μm region in the center of tendon midsubstance in PBS. Collagen was characterized by F-SHG at 800 nm excitation, and signal was collected by a photomultiplier tube using a 405DF30 filter. Background was determined with laser off. Background was subtracted from each F-SHG image using MATLAB (MATHWORKS, MA) and then average pixel intensities of each image were calculated to assess collagen content per unit area.

[2] = system: HH43 chick embryos; experiment: Gross development: anatomical staging and leg appearance of treated embryos; format: in vivo
Description: as §1

[3] = system: HH43 chick embryo calcaneal tendons; experiment: Calcaneal tendon elastic modulus by force volume-AFM after in ovo treatment; format: in vivo; conditions: HH43 chick embryos, 48 h; for calcaneal tendon elastic modulus relative to controls: single in ovo injection, vs saline
Description: as §1, §2
Force volume-AFM was used to characterize tendon elastic modulus using previously established methods (10). Briefly, tendon cryosections were immersed in PBS to remove O.C.T. A silicon nitride tip probe (˜20 nm radius) with a spring constant of 0.06 N/m (BRUKER, CA) was used on an MFP-3D AFM (ASYLUM RESEARCH, CA) to obtain force curves in a 64×64 2-dimensional array over a 10 μm×10 μm tissue region in the center of the tendon midsubstance with a 1.0 μm indentation trigger point. The sample was indented at 6 μm/s, at which tendon elastic properties were previously characterized with negligible viscous effects (10). Elastic modulus was calculated by fitting force displacement curves at each indentation to the Hertzian model using equations adapted from a previous study (10).

[4] = system: LOX activity; experiment: LOX activity assay of calcaneal tendons after in ovo treatment; format: in vivo, chick; conditions: HH43 embryos treated in ovo, 48 h; for reduction of LOX activity levels of calcaneal tendons compared to saline controls: p<0.05
Description: as §1
Western blot to semi-quantitatively measure proLOX levels was performed with rabbit anti-proLOX antibody or rabbit anti-β-actin antibody (ABCAM, MA). ProLOX and β-actin levels were quantified by densitometry at ˜50 kDa and ˜40 kDa molecular bands, respectively. LOX activity of each sample was measured using a LOX activity assay kit (ABCAM, MA). Recombinant LOXL2 enzyme (R&D Systems, MN) was used as a positive control for each assay.

[5] = system: HH43 chick embryo calcaneal tendons; experiment: Collagen crosslink density analysis (HP/collagen) after paralysis; format: in vivo; conditions: HH43 chick embryos, injections at 0 h and 24 h, 48 h of paralysis
Description: Briefly, HH43 chick embryos were either treated with saline (vehicle control), decamethonium bromide (DMB, THERMO FISHER), or pancuronium bromide (PB, THERMO FISHER). Treatments of DMB and PB were performed at 0 h and 24 h by injection through the air-pocket of each egg. After the 48 h of treatments, each embryo was sacrificed by decapitation, was staged, and the calcaneal tendons were dissected for collagen cross-link density analysis. For each biological sample (N=1), 5 tendons were pooled together (5 left calcaneal tendons from 5 chick embryos). In this experiment, collagen crosslink density analysis was performed for biological samples.

[6] = system: chick embryos; experiment: Embryo movement frequency after injection; format: in vivo; conditions: within 1 min of injection, lasted 48 h (data not shown)
Description: as §1

[7] = system: chick embryos; conditions: HH36 to HH44 chick embryos, for at least 24 h, previous studies (14); cited from earlier work
[8] = treated at HH43, harvested after 48 h, compared with non-injected HH45
[9] = treated at HH43 for 48 h, N ≥ 6, expected stage HH45

Which results are given for `N#CCCN` [BAPN, β-aminopropionitrile]?
apparent collagen organization [1]: appeared normal; gross appearance of legs at harvest [2, 8]: appeared similar to non-injected HH45 legs; Stage (HH) of embryos at harvest (mean ± standard deviation (std)) [2, 9]: 45 ± 0.5 HH; calcaneal tendon elastic modulus relative to controls [3]: reduced

With `C[N+](C)(C)CCCCCCCCCC[N+](C)(C)C` [DMB, decamethonium bromide] as the compound, how does the “LOX activity levels in calcaneal tendons compared to controls” value [4] read?
The value was “significantly reduced”.

What about the “reduction of LOX activity levels of calcaneal tendons compared to saline controls” value [4] of the same compound?
Its value is 2 fold.

What about the apparent collagen organization [1] of the same compound?
The apparent collagen organization was “Neither treatment affected”.

And the “collagen content relative to controls” value [1]?
Its value is “Neither treatment affected”.

What about the “hydroxylysyl pyridinoline (HP)/collagen ratio compared to saline-treated tendons” value [5] of the same compound?
The value was “lower”.

What about the “Stage (HH) of embryos at harvest (mean ± standard deviation (std))” value ([2]; in vivo) of the same compound?
The value was 45 ± 0.4 HH.

And the “gross appearance of legs at harvest” value ([2]; in vivo)?
The value was “hyperextended digits”.

What about the “reduction of calcaneal tendon modulus relative to controls” value ([3]; paralysis) of the same compound?
The value was 2 fold.

And the “calcaneal tendon elastic modulus relative to controls” value [3]?
Its value is “significantly reduced”.

Which “LOX activity levels in calcaneal tendons compared to controls” value [4] does the source give for `CC(=O)O[C@H]1C[C@@H]2CC[C@@H]3[C@H](CC[C@@]4(C)[C@H]3C[C@H]([N+]3(C)CCCCC3)[C@@H]4OC(C)=O)[C@@]2(C)C[C@@H]1[N+]1(C)CCCCC1` [PB, pancuronium bromide] here?
The value was “significantly lower”.

And the “reduction of LOX activity levels of calcaneal tendons compared to saline controls” value [4]?
Its value is 2 fold.

And the “hydroxylysyl pyridinoline (HP)/collagen ratio compared to saline-treated tendons” value [5]?
Its value is “lower”.

For `Nc1ccncc1` [4-AP, 4-aminopyridine], which “LOX activity levels in calcaneal tendons compared to controls” value [4] is on record?
The value was “no effects”.

And the apparent collagen organization [1]?
Its apparent collagen organization is “Neither treatment affected; also recorded: appeared normal”.

And the “collagen content relative to controls” value [1]?
The value was “Neither treatment affected”.

What about the “increase of embryo movement frequency” value [6] of the same compound?
Its value is 200%.

What about the “gross appearance of legs at harvest” value [2, 8] of the same compound?
Its value is “appeared similar to non-injected HH45 legs”.

And the “Stage (HH) of embryos at harvest (mean ± standard deviation (std))” value [2, 9]?
Its value is 45 ± 0.4 HH.

And the “hypermotility induced by a single injection” value [7]?
Its value is “up to 400%”.

And the “increase of calcaneal tendon modulus relative to controls” value ([3]; hypermotility)?
Its value is 2 fold.

What about the “calcaneal tendon elastic modulus relative to controls” value [3] of the same compound?
The value was “significantly upregulated; also recorded: higher”.
